Reference: US6881710B1, “Personal care products based upon surfactants based upon alkyl polyglucoside quaternary compounds” (Colonial Chemical Inc., priority 2004, dated 2005)

Key:
[1] = modified Ross-Miles Foam Test; format: physicochemical; details: 1% active in water, 66-67 °C, shaken ten times; time point not stated; higher is better
Source text: Sodium Lauryl sulfate is one of the most commonly used anionic surfactants. While it is a good detergent and produces large volume of foam, it is irritating and has no conditioning properties. In fact, it strips the oil from hair leaving the hair dry and fly away. Compounds of the present invention compare favorably with sodium lauryl sulfate in foam levels, and detergency, but also are non-irritating, conditioning and provide self-preserving properties. This coupled with the fact that they are derived from natural sugars, makes them the perfect single surfactant for personal care formulation. The following compounds were evaluated at 1% active in water. The higher the foam, the better.
The foaming properties of the compositions were also evaluated by a modified “Ross-Miles Foam Test”. This compares the foaming tendencies of different products or surfactants in water at various temperatures.
The test is carried out as follows: • 1. 500 ml. of water (the water should be representative of the system^1) was added to a 1000 ml. graduated cylinder having a cylinder diameter 65 mm. Then 18.0-ppm ortho phosphate is added to the cylinder as a buffer. The test is carried out at a temperature of 66° C. to 67° C. • 2. The concentration tested was 1% by weight solids. • 3. Then cylinder with contents is shaken vertically at the specified temperature ten times (the times shaken equals the number of cycles). After the tenth time, the initial foam height (t=0) is recorded in ml. Then the foam level at t=5 minutes and t=30 minutes is recorded. Results

[2] = salon half head study of conditioning (combability and softness) and wet comb of washed hair; format: in vivo; details: 5% solution; rated by the test person, scale 1 (poor) to 5 excellent
Protocol: Conditioning was studied. The wet comb properties of hair washed in the salon in half head studies was conducted. Evaluation of the dry hair was also evaluated. A 5% solution of the composition of the present invention was evaluated. The person having the test run was asked to evaluate the following samples for combability and softness of the hair. The scale was 1 (poor) to 5 excellent.

Aspergillus niger (mold) = test: antimicrobial zone inhibition technique; format: cell-based; set-up: key: 1=Excellent; 2=Very Good; 3=Good; 4=OK (moderate); 6=Poor; 8=No Activity; details: 0.50% by weight in water; lower score = greater activity
Protocol: (§1) A study was conducted to determine the antimicrobial capability of four (4) SugaQuat (alkyl polyglucoside) variations utilizing the zone inhibition technique. The test materials were evaluated for gross antimicrobial activity against a series of four (4) test organisms: Pseudomonas aeruginosa (Gram-negative bacteria); Staphylococcus aureus (Gram-positive bacteria); Candida albicans (yeast) and Aspergillus niger (mold) utilizing the zone inhibition technique.
(§2) • Sodium Lauryl Sulfate (0.50% by weight concentration in water). • Sodium Laureth 2 Sulfate (0.50% by weight concentration in water). • Example 3 (0.50% by weight concentration in water). • Example 4 (0.50% by weight concentration in water). • Example 8 (0.50% by weight concentration in water). • Example 9 (0.50% by weight concentration in water). • Example 7 (0.50% by weight concentration in water). Activity Summary • SCORING: • 1=Excellent; 2=Very Good; 3=Good; 4=OK (moderate); 6=Poor; 8=No Activity Control Compounds

Candida albicans (yeast) = test: antimicrobial zone inhibition technique; format: cell-based; set-up: key: 1=Excellent; 2=Very Good; 3=Good; 4=OK (moderate); 6=Poor; 8=No Activity; details: 0.50% by weight in water; lower score = greater activity
Protocol: as §1, §2

[3] = test system: Pseudomonas aeruginosa (Gram-negative bacteria); test: antimicrobial zone inhibition technique; format: cell-based; set-up: key: 1=Excellent; 2=Very Good; 3=Good; 4=OK (moderate); 6=Poor; 8=No Activity; details: 0.50% by weight in water; lower score = greater activity
Protocol: as §1, §2

[4] = test system: Staphylococcus aureus (Gram-positive bacteria); test: antimicrobial zone inhibition technique; format: cell-based; set-up: key: 1=Excellent; 2=Very Good; 3=Good; 4=OK (moderate); 6=Poor; 8=No Activity; details: 0.50% by weight in water; lower score = greater activity
Protocol: as §1, §2

[5] = test system: Pseudomonas aeruginosa; Staphylococcus aureus; Candida albicans; Aspergillus niger; test: antimicrobial zone inhibition technique, activity summary over four test organisms; format: cell-based; details: 0.50% by weight in water; for Comments (antimicrobial activity in words): B = bacteria, Y = yeast, M = mold; for Score (sum of the four organism scores): lower score = greater activity
Protocol: as §1, §2

[6] = salon half head study of detergency (cleanliness of washed hair); format: in vivo; details: 5% solution; rated by the test person, scale 1 (poor) to 5 excellent
Protocol: Detergency was also studies. The cleanliness of hair washed in the salon in half head studies was conducted. A 5% solution of the composition of the present invention was evaluated. The person having the test run was asked to evaluate the following samples for cleanliness of the hair. The scale was 1 (poor) to 5 excellent.

Compound | Foam Level [1] | Conditioning [2] | Wet Comb [2] | An activity score (Aspergillus niger (mold)) | Ca activity score (Candida albicans (yeast)) | Psa activity score [3] | Sa activity score [4] | Comments (antimicrobial activity in words) [5] | Score (sum of the four organism scores) [5] | Detergency Result (cleanliness of the hair) [6]
Sodium laureth 3-sulfate | 720 mL | – | – | – | – | – | – | – | – | –
Sodium laureth 1-sulfate | 750 mL | – | – | – | – | – | – | – | – | –
Sodium Laureth 2 Sulfate | 770 mL | 1 | 1 | 8 | 8 | 8 | 8 | No activity | 32 | 4
CCCCCCCCCCCCOS(=O)(=O)[O-].[Na+] [Sodium Lauryl Sulfate] | 900 mL | 1 | 1 | 8 | 8 | 8 | 8 | No activity | 32 | 5
